Legend:
[1] = species: Rattus norvegicus; test: Gastrointestinal tolerability was evaluated under chronic conditions, in rats. The ulcerogenic dose from a 4-week toxicity study, was reported.; format: functional
[2] = species: Rattus norvegicus; test: Gastrointestinal tolerability was evaluated in rats and amount blood loss was reported.; format: functional
[3] = tested on: Rattus norvegicus; test: Antiinflammatory activity was evaluated in an carrageenan edema (acute inflammation) test, after administering compound orally in rats.; format: functional; conditions: po
[4] = species: Rattus norvegicus; test: Gastrointestinal tolerability was evaluated under chronic conditions, in rats. The ulcerogenic dose was reported.; format: functional
[5] = species: Rattus norvegicus; test: Gastrointestinal tolerability was evaluated under acute conditions, in rats. The ulcerogenic dose was reported.; format: functional
[6] = tested on: Rattus norvegicus; test: Antiinflammatory activity was evaluated in an adjuvant arthritis (subchronic inflammation) test, after administering compound orally in rats.; format: functional; conditions: po
[7] = tested on: Rattus norvegicus; test: Antiinflammatory activity was evaluated in an carrageenan edema (acute inflammation) test, after administering compound orally in rats; 15-30; format: functional; conditions: po
[8] = species: Rattus norvegicus; test: Gastrointestinal tolerability was evaluated in rats and amount blood loss was reported; format: functional
[9] = species: Rattus norvegicus; test: Gastrointestinal tolerability was evaluated in rats and compound dose that causes lethality was reported; format: toxicity, organism-based; conditions: in vivo
[10] = tested on: Rattus norvegicus; test: Antiinflammatory activity was evaluated in an adjuvant arthritis (subchronic inflammation) test after administering compound orally in rats; format: functional; conditions: po
[11] = species: Rattus norvegicus; test: Gastrointestinal tolerability was evaluated under acute conditions, in rats. The ulcerogenic dose was reported; format: functional
[12] = species: Rattus norvegicus; test: Gastrointestinal tolerability was evaluated under chronic conditions, in rats. The ulcerogenic dose was reported; format: functional
[13] = tested on: Rattus norvegicus; test: Antiinflammatory activity was evaluated in an adjuvant arthritis (subchronic inflammation) test after administering compound orally in rats.; format: functional; conditions: po
[14] = tested on: Rattus norvegicus; test: Antiinflammatory activity was evaluated in an carrageenan edema (acute inflammation) test, after administering compound orally in rats; format: functional; conditions: po
[15] = tested on: Rattus norvegicus; test: Antiinflammatory activity was evaluated in an carrageenan edema (acute inflammation) test, after administering compound orally in rats; 50-100; format: functional; conditions: po
[16] = species: Rattus norvegicus; test: Gastrointestinal tolerability was evaluated under chronic conditions, in rats. The ulcerogenic dose was reported; 30-100; format: functional
[17] = species: Rattus norvegicus; test: Gastrointestinal tolerability was evaluated in rats and compound dose that causes lethality was reported.; format: toxicity, organism-based; conditions: in vivo

For `O=C(O)C1CCc2cc(CC3CCCC3)c(Cl)cc21` (configuration not stated), the UD [1] was over 400 mg/kg, the Blood loss [2] was over 100 mg/kg and the ED50 [3] was 30 mg/kg. It also gave a UD [4] of over 100 mg/kg, a UD [5] of over 400 mg/kg and an ED40 [6] of 30 mg/kg.
Work on `CC(C(=O)O)c1ccc2oc(-c3ccc(Cl)cc3)nc2c1` (configuration not stated) [BENOXAPROFEN] yielded an ED50 [7] of 15 mg/kg, a Blood loss [8] of under 50 mg/kg and a Lethality [9] of under 50 mg/kg. It also gave an ED40 [10] of 10 mg/kg, a UD [11] of over 200 mg/kg and a UD [12] of under 30 mg/kg.
With `O=C(O)C1CCc2cc(C3CCCCC3)c(Cl)cc21` (configuration not stated) [CLIDANAC] the ED50 [3] was 4 mg/kg, the UD [5] was under 3 mg/kg and the ED40 [6] was 4 mg/kg.
For `O=C(O)Cc1ccccc1Nc1c(Cl)cccc1Cl` [DICLOFENAC], the Blood loss [8] was 20 mg/kg, the ED40 [13] was 2 mg/kg and the ED50 [14] was 2 mg/kg. The UD [5] was 20 mg/kg and the UD [12] was 20 mg/kg.
`CC(C)Cc1ccc(C(C)C(=O)O)cc1` (configuration not stated) [IBUPROFEN] gave a Blood loss [8] of 200 mg/kg, an ED50 [15] of 50 mg/kg and a Lethality [9] of 400 mg/kg. The ED40 [10] was over 150 mg/kg, the UD [16] was 30 mg/kg and the UD [11] was 30 mg/kg.
Molecule `COc1ccc2c(c1)c(CC(=O)O)c(C)n2C(=O)c1ccc(Cl)cc1` [INDOMETHACIN] has a Blood loss [2] of 4 mg/kg, an ED50 [3] of 4 mg/kg and a Lethality [17] of 8 mg/kg. For the same molecule, the UD [4] was 4 mg/kg, the UD [5] was 4 mg/kg and the ED40 [6] was 2 mg/kg.
For `COc1ccc2cc([C@H](C)C(=O)O)ccc2c1` [NAPROXEN], the Blood loss [2] was over 30 mg/kg, the ED50 [3] was 15 mg/kg and the Lethality [17] was over 30 mg/kg. The UD [5] was 5 mg/kg and the ED40 [6] was 10 mg/kg.

— ChEMBL document CHEMBL1122628, “Nonsteroidal antiinflammatory agents. 14. Synthesis and pharmacological profile of 6-chloro-5-(cyclopentylmethyl)indan-1-carboxylic acid” (J Med Chem, 1984)
